PMC11541514, “Structural and Solution Speciation Studies on fac-Tricarbonylrhenium(I) Complexes of 2,2′-Bipyridine Analogues” (ACS Omega, 2024)

How the values were obtained:
[1] = test system: Colo320/MDR-LRP resistant human colonic adenocarcinoma cell line; assay: MTT cytotoxicity assay on Colo320 cells; type: cell-based; details: for IC50: MTT, incubation time 72 h
Protocol: (§1) The cytotoxic activity of selected halido (1–4Cl, and 3Br with chlorido and bromido coligand, respectively) and aqua (1–4Aq) complexes was evaluated in the drug-sensitive Colo205 and its resistant counterpart Colo320 human colonic adenocarcinoma cell lines using the colorimetric 3-(4,5-dimethylthiazol-2-yl)-2,5-diphenyl-tetrazolium bromide (MTT) assay. For comparison, fac-[Re(CO)3(bpy)(Cl)] (in which bpy denotes 2,2′-bipyridine) was also tested, and doxorubicin was used as a positive control. […] The aqua complexes (1–4Aq) were characterized by even higher IC50 values (>100 μM). The somewhat higher cytotoxic activity of the halido complexes might be the result of their kinetic inertness compared to aqua derivatives, based on the previous solution chemical studies.
Doxorubicin-sensitive Colo205 (ATCC-CCL-222) and ABCB1 (MDR1)-LRP-expressing resistant Colo320/MDR-LRP (ATCC-CCL-220.1) human colonic adenocarcinoma cell lines were purchased from LGC Promochem (Teddington, UK). The cells were cultured in RPMI 1640 medium supplemented with 10% heat-inactivated fetal bovine serum, 2 mM L-glutamine, 1 mM Na-pyruvate, and 10 mM 4-(2-hydroxyethyl)-1-piperazineethanesulfonic acid (HEPES, Sigma, Steinheim, Germany). Cell lines were incubated at 37 °C in a 5% CO2, 95% air atmosphere. The semiadherent human colon cancer cells were detached with Trypsin-Versene (EDTA, Sigma, Steinheim, Germany) solution for 5 min at 37 °C.
(§2) The tested compounds were dissolved in DMSO or 20% (v/v) DMSO/H2O mixture to prepare 5 mM stock solutions, which were diluted in complete culture medium, to study the effect of compounds on the cell growth of human colonic adenocarcinoma cell lines (doxorubicin-sensitive Colo205 and resistant Colo320 colonic adenocarcinoma cells). Doxorubicin (Merck, Darmstadt, Germany) was used as a positive control. The cells were treated with Trypsin-Versene (EDTA) solution. […] Cell growth was determined by measuring the optical density (OD) at 540/630 nm with a Multiscan EX ELISA reader (Thermo Labsystems, Cheshire, WA, USA). […]

[2] = test system: Colo205 human colonic adenocarcinoma cell line (doxorubicin-sensitive); assay: MTT cytotoxicity assay on Colo205 cells; type: cell-based
Protocol: as §1, with “studies. […]” for “studies.”
as §2, with “cells).” for “cells). Doxorubicin (Merck, Darmstadt, Germany) was used as a positive control. The cells were treated with Trypsin-Versene (EDTA) solution.”

[3] = test system: Vero cells; assay: MTT assay on Vero cells, maximum non-toxic concentration; type: cell-based, African green monkey; details: incubation 24 h
Protocol: Selected compounds (1–4Aq, 1–4Cl, and 3Br) and the reference complex fac-[Re(CO)3(bpy)(Cl)] were tested for their antiviral activity against Herpes simplex virus 2 (HSV-2), which is a double-stranded DNA virus that infects mammals, including humans.[29] The antiviral activity of complexes against HSV-2 was investigated by using Vero cells (originally isolated from kidney epithelial cells of an African green monkey) to host the growing viruses.
Vero cells (ATCC) were placed into the 96-well plate (Sarstedt, Nümbrecht, Germany) at a density of 4 × 10^6 cells/plate. The cells at a density of 4 × 10^4 cells per well were in 100 μL of minimal essential medium (MEM) (Sigma; USA) with Earle salts supplemented with 25 μg/mL gentamicin, 10% heat-inactivated fetal bovine serum (FBS) (Gibco; Germany), 8 mM HEPES, 2 mM L-glutamine, 1× nonessential amino acids, and 1 μg/mL fungisone. The cells were incubated for 60 min at room temperature (RT) to avoid the edge effect and then for 24 h at 37 °C, 5% CO2 that secure a 90% confluent cell layer.[44]
MTT assay was used to determine the maximum non-toxic concentration of the complexes on Vero cells. […] Next day the absorbance of the wells was determined by a microtiter plate reader (Labsystems Multiskan Ex 355, Thermo Fisher Scientific, Waltham, MA USA). The absorbance of the formazan product was measured at 540 nm.[45]

COc1cccc2c1C(=O)c1c(O)c3c(c(O)c1C2=O)C[C@@](O)(C(=O)CO)C[C@@H]3O[C@H]1C[C@H](N)[C@H](O)[C@H](C)O1 [doxorubicin, reference compound]
IC50 ([1]; Homo sapiens, COLO 320): 3.13 ± 0.29 µM | IC50 ([2]; Homo sapiens, COLO 205, incubation time 72 h): 0.58 ± 0.06 µM

[C-]#[O+].[C-]#[O+].[C-]#[O+].[Cl][Re-2]1[n+]2ccccc2-c2cccc[n+]21 [fac-[Re(CO)3(bpy)(Cl)], reference compound]
maximum nontoxic concentration [3]: 25 µM | RF (resistance factor = IC50(Colo320)/IC50(Colo205)) ([1]; 72 h): 1.95 | IC50 [1]: 49.1 ± 1.7 µM | IC50 ([2]; incubation time 72 h): 25.2 ± 1.1 µM
